Data taken from paper PMC10866013 (Nature, 2023).

Tested on: MRSA USA300
Format: cell-based, Staphylococcus aureus
Conditions: vs S. aureus RN4220

CC1(C)S[C@@H]2[C@H](NC(=O)[C@H](N)c3ccccc3)C(=O)N2[C@H]1C(=O)O [ampicillin]
MIC increase in MRSA USA300 relative to the methicillin-susceptible strain: at least 16 fold
